According to PubChem BioAssay AID248 (DTP/NCI, 2004):
Where “and” joins values, the source holds several entries; their conditions need not be identical. Equal values may be shown once. Inconclusive results and toxic doses are left out. Cut-off read from the data, not from the text of the source: active = T/C of 150% or more; inactive = T/C below 125%.

Test system: L1210 leukemia ip in BDF1 mice, survival T/C
Test: NCI In Vivo Anticancer Drug Screen. Data for tumor model L1210 Leukemia (intraperitoneal) in B6D2F1 (BDF1) mice
Conditions: endpoint: mean survival time, higher = longer survival
Outline: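 Read-out is survival time, reported as the treated-group measurement over the vehicle-control measurement.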

[1] = dose: 100.0 mg/kg/injection, schedule: Q01DX009 (ip), vehicle: saline with Tween-80
[2] = dose: 100.0 mg/kg/injection, schedule: Q04DX003 (ip), vehicle: saline with Tween-80
[3] = dose: 200.0 mg/kg/injection, schedule: Q01DX009 (ip), vehicle: saline with Tween-80
[4] = dose: 200.0 mg/kg/injection, schedule: Q04DX003 (ip), vehicle: saline with Tween-80
[5] = dose: 400.0 mg/kg/injection, schedule: Q01DX009 (ip), vehicle: saline with Tween-80
[6] = dose: 400.0 mg/kg/injection, schedule: Q04DX003 (ip), vehicle: saline with Tween-80
[7] = dose: 100.0 mg/kg/injection, schedule: Q01DX009 (ip), vehicle: Klucel (hydroxypropylcellulose) (HPC)
[8] = dose: 100.0 mg/kg/injection, schedule: Q04DX003 (ip), vehicle: Klucel (hydroxypropylcellulose) (HPC)
[9] = dose: 200.0 mg/kg/injection, schedule: Q01DX009 (ip), vehicle: Klucel (hydroxypropylcellulose) (HPC)
[10] = dose: 200.0 mg/kg/injection, schedule: Q04DX003 (ip), vehicle: Klucel (hydroxypropylcellulose) (HPC)
[11] = dose: 400.0 mg/kg/injection, schedule: Q01DX009 (ip), vehicle: Klucel (hydroxypropylcellulose) (HPC)
[12] = dose: 400.0 mg/kg/injection, schedule: Q04DX003 (ip), vehicle: Klucel (hydroxypropylcellulose) (HPC)
[13] = dose: 100.0 mg/kg/injection, schedule: Q01DX001 (ip), vehicle: saline
[14] = dose: 200.0 mg/kg/injection, schedule: Q01DX001 (ip), vehicle: saline
[15] = dose: 400.0 mg/kg/injection, schedule: Q01DX001 (ip), vehicle: saline
[16] = dose: 100.0 mg/kg/injection, schedule: Q01DX009 (ip), vehicle: saline
[17] = dose: 200.0 mg/kg/injection, schedule: Q01DX009 (ip), vehicle: saline
[18] = dose: 400.0 mg/kg/injection, schedule: Q01DX009 (ip), vehicle: saline

Measured: T/C

Cc1ccc2c(c1)C(=NCCCN=C1C(=O)Nc3ccc(C)cc31)C(=O)N2
inactive: [1] 96 % of control | [2] 93 % of control | [3] 91 % of control | [4] 102 % of control | [5] 98 % of control | [6] 98 % of control

C[C@]12CC[C@@H]3c4ccc(O)cc4CC[C@H]3[C@@H]1CC[C@@H]2O
inactive: dose: 500.0 mg/kg/injection, schedule: Q01DX Z (sc), vehicle: water 93 % of control | dose: 1000.0 mg/kg/injection, schedule: Q01DX Z (sc), vehicle: water 90 % of control

C[n+]1c2cc(N)ccc2cc2ccc(N)cc21
inactive: dose: 3.0 mg/kg/injection, schedule: Q04DX003 (ip), vehicle: saline 108 % of control | dose: 3.5 mg/kg/injection, schedule: Q01DX009 (ip), vehicle: saline 111 % of control | dose: 5.3 mg/kg/injection, schedule: Q01DX009 (ip), vehicle: saline 118 % of control | dose: 6.0 mg/kg/injection, schedule: Q04DX003 (ip), vehicle: saline 105 % of control | dose: 6.25 mg/kg/injection, schedule: Q01DX009 (ip), vehicle: saline 122 % of control | dose: 12.0 mg/kg/injection, schedule: Q04DX003 (ip), vehicle: saline 113 % of control | dose: 12.5 mg/kg/injection, schedule: Q04DX003 (ip), vehicle: saline 98 % of control

NNC(=O)c1nc(N)n[nH]1
inactive: [1] 98 % of control | [3] 95 % of control | [5] 109 % of control

O=C(O)c1cccc(F)n1
inactive: [2] 91 % of control | [4] 89 % of control

CN(C)c1ccccc1C(=O)NNC(=S)Nc1ccccc1
inactive: [7] 103 % of control | [8] 96 % of control | [9] 96 % of control | [10] 93 % of control | [11] 93 % of control | [12] 94 % of control

C1CCC2C(C1)CCCC2C1C2C3CCCCC3CCC2C2CCC3CCCCC3C21 (configuration not stated)
inactive: [2] 91 % of control | [4] 91 % of control | [6] 88 % of control

CC(c1ccccc1)n1cnc2c(N(CCO)CCO)ncnc21 (configuration not stated)
inactive: [13] 117 % of control | [14] 104 % of control | [15] 101 % of control

CC(=O)NC(C)C(C)(C)O (configuration not stated)
inactive: [16] 101 % of control | [17] 98 % of control | [18] 103 % of control

Nc1nc2c(ncn2C2OC(COP(=O)(O)OC3C(COP(=O)(O)O)OC(n4cnc5c(=O)[nH]c(N)nc54)C3O)C(O)C2O)c(=O)[nH]1 (configuration not stated) (tested in a mixture with another compound)
inactive: dose: 2.5 mg/kg/injection, schedule: Q01DX009 (ip), vehicle: other 108 % of control | dose: 5.0 mg/kg/injection, schedule: Q01DX009 (ip), vehicle: other 105 % of control | dose: 10.0 mg/kg/injection, schedule: Q01DX009 (ip), vehicle: other 111 % of control

O=C1NC(=O)/C(=C/c2ccccc2)N1
inactive: [7] 96 % of control | [8] 104 % of control | [9] 98 % of control | [10] 96 % of control | [11] 102 % of control | [12] 96 % of control

CN(C)c1ccc(/C=N/NC(=O)c2ccc(O)cc2)c(Cl)c1
inactive: dose: 25.0 mg/kg/injection, schedule: Q01DX009 (ip), vehicle: saline with Tween-80 97 % of control and 103 % of control | dose: 50.0 mg/kg/injection, schedule: Q01DX001 (ip), vehicle: saline with Tween-80 86 % of control | dose: 50.0 mg/kg/injection, schedule: Q01DX009 (ip), vehicle: saline with Tween-80 102 % of control and 113 % of control | dose: 100.0 mg/kg/injection, schedule: Q01DX001 (ip), vehicle: saline with Tween-80 88 % of control | dose: 100.0 mg/kg/injection, schedule: Q04DX002 (ip), vehicle: saline with Tween-80 97 % of control and 98 % of control | [2] 104 % of control | dose: 200.0 mg/kg/injection, schedule: Q01DX001 (ip), vehicle: saline with Tween-80 94 % of control | dose: 200.0 mg/kg/injection, schedule: Q04DX002 (ip), vehicle: saline with Tween-80 97 % of control and 91 % of control | [4] 87 % of control | [5] 92 % of control | dose: 400.0 mg/kg/injection, schedule: Q04DX002 (ip), vehicle: saline with Tween-80 94 % of control and 90 % of control | [6] 95 % of control

CC1(O)C(=O)C=Cc2ccccc21 (configuration not stated)
inactive: dose: 100.0 mg/kg/injection, schedule: Q01DX001 (ip), vehicle: Klucel (hydroxypropylcellulose) (HPC) 93 % of control | dose: 200.0 mg/kg/injection, schedule: Q01DX001 (ip), vehicle: Klucel (hydroxypropylcellulose) (HPC) 102 % of control | dose: 400.0 mg/kg/injection, schedule: Q01DX001 (ip), vehicle: Klucel (hydroxypropylcellulose) (HPC) 96 % of control

NC(=O)NC1C(c2ccccc2)C1c1ccccc1 (configuration not stated)
inactive: [13] 121 % of control | [14] 110 % of control | [15] 93 % of control

O=C(Nc1cccc(Br)c1)c1cc(Cl)cc(Cl)c1Br
inactive: dose: 87.5 mg/kg/injection, schedule: Q04DX003 (ip), vehicle: saline with Tween-80 105 % of control | dose: 175.0 mg/kg/injection, schedule: Q04DX003 (ip), vehicle: saline with Tween-80 97 % of control | dose: 350.0 mg/kg/injection, schedule: Q04DX003 (ip), vehicle: saline with Tween-80 97 % of control

c1ccc2c(OCC3CO3)cccc2c1 (configuration not stated)
inactive: dose: 50.0 mg/kg/injection, schedule: Q01DX001 (ip), vehicle: other 94 % of control | dose: 100.0 mg/kg/injection, schedule: Q01DX001 (ip), vehicle: other 94 % of control | dose: 200.0 mg/kg/injection, schedule: Q01DX001 (ip), vehicle: other 94 % of control | dose: 400.0 mg/kg/injection, schedule: Q01DX001 (ip), vehicle: other 111 % of control

NC(=O)N1Cc2ccccc2Cc2ccccc2C1
inactive: [7] 101 % of control | [9] 92 % of control | [11] 95 % of control

CN(CC(=O)C(C#N)c1ccccc1)c1ccccc1 (configuration not stated)
inactive: dose: 50.0 mg/kg/injection, schedule: Q01DX001 (ip), vehicle: carboxymethylcellulose (CMC) 98 % of control | dose: 100.0 mg/kg/injection, schedule: Q01DX001 (ip), vehicle: carboxymethylcellulose (CMC) 93 % of control | dose: 200.0 mg/kg/injection, schedule: Q01DX001 (ip), vehicle: carboxymethylcellulose (CMC) 91 % of control | dose: 400.0 mg/kg/injection, schedule: Q01DX001 (ip), vehicle: carboxymethylcellulose (CMC) 98 % of control

COc1ccc(C(C#N)CC(=O)c2ccc3c(c2)OCO3)cc1OC (configuration not stated)
inactive: [16] 104 % of control | dose: 100.0 mg/kg/injection, schedule: Q04DX003 (ip), vehicle: saline 98 % of control | [17] 104 % of control | dose: 200.0 mg/kg/injection, schedule: Q04DX003 (ip), vehicle: saline 104 % of control | [18] 97 % of control | dose: 400.0 mg/kg/injection, schedule: Q04DX003 (ip), vehicle: saline 98 % of control
